Assay results from patent US20260355188A1, “COMBINATION THERAPIES USING PRMT5 INHIBITORS AND BCL-2 FAMILY INHIBITORS FOR THE TREATMENT OF CANCER” (MIRATI THERAPEUTICS, INC., priority 2022, published 2026).

How the values were obtained:
[1] = system: LU99 xenograft tumors; test: In vivo combination study (LU99 model), Example 4; set-up: species or system female nu/nu mice; conditions: MRTX1719 100 mg/kg PO QD, A-1331852 25 mg/kg PO BID, alone or combined
From the text: Immunodeficient female nu/nu mice were implanted with 5×10^6 LU99 cancer cells in 50% Matrigel. Tumor volume measurements were collected using calipers and determined utilizing the formula 0.5×L×W^2 in which L refers to length and W refers to width of each tumor. When tumors reached approximately 125-150 mm^3, animals were randomized to receive A) vehicle, B) a PRMT5 inhibitor, C) navitoclax (ABT-263), D) venetoclax (ABT-199), E) A-1331852, F) the PRMT5 inhibitor and navitoclax, F) the PRMT5 inhibitor and venetoclax, or G) the PRMT5 inhibitor and A-1331852 all administered orally (PO) with the indicated dose and schedule for 20-34 days. Tumor volume was measured twice a week (n=5/treatment group). Average tumor volume and standard error of the mean was calculated and plotted at each study day using GraphPad Prism.
Example 4 was carried out according to the in vivo study procedure described above in Example 1.
The PRMT5 inhibitor was MRTX1719 administered at 100 mg/kg once a day (QD). MRTX1719 is (2M)-2-(4-(4-(aminomethyl)-1-oxo-1,2-dihydrophthalazin-6-yl)-1-methyl-1H-pyrazol-5-yl)-4-chloro-6-cyclopropoxy-3-fluorobenzonitrile, disclosed as Example 16-8 at p. 307 of the international patent publication No. WO 2021/050915 A1, published 18 Mar. 2021, incorporated by reference in its entirety. The BCL-2 family inhibitor, A-1331852 was administered at 25 mg/kg twice a day (BID) and synthesized at Wuxi AppTec (Wuhan, China).

[2] = system: Miapaca2; test: In vitro combination synergy, Miapaca2 (Cell-Titer Glo); assay type: cell-based; conditions: combined with exemplary PRMT5 inhibitor, 120 h, sum of Loewe, Bliss, HSA and ZIP scores
Experimental: (§1) A panel of MTAP-deleted cancer cell lines was assembled to determine whether combining BCL-2 family inhibitors with exemplary PRMT5 inhibitors disclosed herein results in synergistic activity.
(§2) [Assays for determining the synergy score for the pairwise combinations for each cell line were performed in triplicate. 384 or 96-well plates plus additional wells of a separate 384 or 96-well control plate for determining baseline luminescence were seeded with cells of a particular MTAP-deleted cell line in a suitable growth medium for that cell line, e.g., RPMI 1640 medium supplemented with 10% FBS and any cell line specific reagents needed for growth. The plates were incubated overnight at 37 °C in a 5% CO2 atmosphere.
(§3) To each of the designated baseline wells, Cell-Titer Glo reagent (CTG; Promega Corporation) was added to each well and the plates were incubated for 20 min shaking at room temperature. Baseline luminescence was quantitated using a BMG ClarioStar multimode plate reader according to the manufacturer's instructions.
(§4) A series of 1000× drug dilutions in 100% DMSO was prepared that includes a 9-point single agent 3-fold dilution of the exemplary PRMT5 inhibitor (of the type described in WO2021/050915) with a top dose of 3000 nM (and a 6-point single agent 5-fold dilution of the BCL-2 family inhibitor with a top dose of 3000 nM as reference standards.
(§5) A 10× intermediate dosing plate was prepared in serum free medium that contains arrayed single agent dilutions of exemplary PRMT5 inhibitor (of the type described in WO2021/050915) and or the BCL-2 family inhibitor. In addition, a matrix of 54 dilution combinations of exemplary PRMT5 inhibitor (of the type described in WO2021/050915) and the BCL-2 family inhibitor was prepared as test samples.
(§6) To each corresponding well of the 384-well plates seeded with the appropriate cell line above, 10× single agent and the 54 combinations of the dose matrix was added and the plates were incubated for 120 hours at 37 °C in 5% CO2 atmosphere. Cell-Titer Glo reagent (CTG) was added to each test well, the plates were incubated for 20 min shaking at room temperature, and luminescence was quantitated using a BMG ClarioStar multimode plate reader according to the manufacturer's instructions. To normalize test samples, the determined baseline luminescence was subtracted from each test sample prior to analysis and mean values are calculated from replicate samples.
(§7) The output of the data from each mathematical model is the assignment of a relative synergy score. The data reported in Table 6 are the aggregate sum of the Loewe additivity, Bliss independence, Highest Single Agent and ZIP synergy scores (“Composite Synergy Score”).

[3] = system: RT4; test: In vitro combination synergy, RT4 (Cell-Titer Glo); assay type: cell-based; conditions: combined with exemplary PRMT5 inhibitor, 120 h, sum of Loewe, Bliss, HSA and ZIP scores
Experimental: as §1, §2, §3, §4, §5, §6, §7

[4] = system: SU8686; test: In vitro combination synergy, SU8686 (Cell-Titer Glo); assay type: cell-based; conditions: combined with exemplary PRMT5 inhibitor, 120 h, sum of Loewe, Bliss, HSA and ZIP scores
Experimental: as §1, §2, §3, §4, §5, §6, §7

[5] = system: H1437; test: In vitro combination synergy, H1437 (Cell-Titer Glo); assay type: cell-based; conditions: combined with exemplary PRMT5 inhibitor, 120 h, sum of Loewe, Bliss, HSA and ZIP scores
Experimental: as §1, §2, §3, §4, §5, §6, §7

[6] = system: H2452; test: In vitro combination synergy, H2452 (Cell-Titer Glo); assay type: cell-based; conditions: combined with exemplary PRMT5 inhibitor, 120 h, sum of Loewe, Bliss, HSA and ZIP scores
Experimental: as §1, §2, §3, §4, §5, §6, §7

[7] = system: Mero14; test: In vitro combination synergy, Mero14 (Cell-Titer Glo); assay type: cell-based; conditions: combined with exemplary PRMT5 inhibitor, 120 h, sum of Loewe, Bliss, HSA and ZIP scores
Experimental: as §1, §2, §3, §4, §5, §6, §7

[8] = system: H2052; test: In vitro combination synergy, H2052 (Cell-Titer Glo); assay type: cell-based; conditions: combined with exemplary PRMT5 inhibitor, 120 h, sum of Loewe, Bliss, HSA and ZIP scores
Experimental: as §1, §2, §3, §4, §5, §6, §7

[9] = system: H1650; test: In vitro combination synergy, H1650 (Cell-Titer Glo); assay type: cell-based; conditions: combined with exemplary PRMT5 inhibitor, 120 h, sum of Loewe, Bliss, HSA and ZIP scores
Experimental: as §1, §2, §3, §4, §5, §6, §7

[10] = system: LU99; test: In vitro combination synergy, LU99 (Cell-Titer Glo); assay type: cell-based; conditions: combined with exemplary PRMT5 inhibitor, 120 h, sum of Loewe, Bliss, HSA and ZIP scores
Experimental: as §1, §2, §3, §4, §5, §6, §7

[11] = system: A549; test: In vitro combination synergy, A549 (Cell-Titer Glo); assay type: cell-based; conditions: combined with exemplary PRMT5 inhibitor, 120 h, sum of Loewe, Bliss, HSA and ZIP scores
Experimental: as §1, §2, §3, §4, §5, §6, §7

[12] = system: HCC4006; test: In vitro combination synergy, HCC4006 (Cell-Titer Glo); assay type: cell-based; conditions: combined with exemplary PRMT5 inhibitor, 120 h, sum of Loewe, Bliss, HSA and ZIP scores
Experimental: as §1, §2, §3, §4, §5, §6, §7

[13] = system: H2228; test: In vitro combination synergy, H2228 (Cell-Titer Glo); assay type: cell-based; conditions: combined with exemplary PRMT5 inhibitor, 120 h, sum of Loewe, Bliss, HSA and ZIP scores
Experimental: as §1, §2, §3, §4, §5, §6, §7

[14] = system: Mero84; test: In vitro combination synergy, Mero84 (Cell-Titer Glo); assay type: cell-based; conditions: combined with exemplary PRMT5 inhibitor, 120 h, sum of Loewe, Bliss, HSA and ZIP scores
Experimental: as §1, §2, §3, §4, §5, §6, §7

Compound	Average Tumor Volume ([1]; day 2) [mm^3]	Average Tumor Volume ([1]; day 6) [mm^3]	Average Tumor Volume ([1]; day 9) [mm^3]	Average Tumor Volume ([1]; day 14) [mm^3]	Average Tumor Volume ([1]; day 16) [mm^3]	Average Tumor Volume ([1]; day 20) [mm^3]	Average Tumor Volume ([1]; day −1) [mm^3]	Composite Synergy Score [2]	Composite Synergy Score [3]	Composite Synergy Score [4]	Composite Synergy Score [5]	Composite Synergy Score [6]	Composite Synergy Score [7]	Composite Synergy Score [8]	Composite Synergy Score [9]	Composite Synergy Score [10]	Composite Synergy Score [11]	Composite Synergy Score [12]	Composite Synergy Score [13]	Composite Synergy Score [14]
Cn1ncc(-c2ccc3c(=O)[nH]nc(CN)c3c2)c1-c1c(F)c(Cl)cc(OC2CC2)c1C#N (atropisomer, axis not shown; (M)) [MRTX1719, (2M)-2-(4-(4-(aminomethyl)-1-oxo-1,2-dihydrophthalazin-6-yl)-1-methyl-1H-pyrazol-5-yl)-4-chloro-6-cyclopropoxy-3-fluorobenzonitrile]	221	229	232	268	296	360	137													
Cc1c(-c2ccc(N3CCc4cccc(C(=O)Nc5nc6ccccc6s5)c4C3)nc2C(=O)O)cnn1CC12CC3CC(CC(C3)C1)C2 [A-1331852]	217	393	547	960	1228	1331	137	70	40	50	36	42	28	12	62	64	42	63	36	0
CC1(C)CCC(c2ccc(Cl)cc2)=C(CN2CCN(c3ccc(C(=O)NS(=O)(=O)c4ccc(N[C@H](CCN5CCOCC5)CSc5ccccc5)c(S(=O)(=O)C(F)(F)F)c4)cc3)CC2)C1 [ABT-263, navitoclax]								16	24	12	13	−20	18	11	32	41	23	23	24	−4
